Measurements reported in patent US11639350B2, “Heteroaryldihydropyrimidine derivatives and methods of treating hepatitis B infections” (Janssen Pharmaceutica NV, priority 2018, dated 2023).
Where two headings read alike, the source gives them in different places.

What was measured:
[1] = Cytotoxicity determination in HepG2.2.15 cells (CCK-8); format: cell-based; conditions: human, 6 days of compound treatment, CCK-8, highest concentration 100 μM
Protocol: (§1) HBV replication inhibition by the compounds of this invention as well as cytotoxicity determination was determined in cells infected or transfected with HBV, or cells with stably integrated HBV, such as HepG2.2.15 cells (Sells et al. 1987). The method used herein is as follows.
(§2) The HepG2.2.15 cells were seeded into 96-well plate in 2% FBS (Fetal bovine serum) culture medium at the density of 40,000 cells/well and 5,000 cells/well for HBV inhibitory activity and cytotoxicity determination, respectively. After seeding, the cell plates were incubated at 37° C., 5% CO2 overnight. The next day, medium containing compounds were added to treat the cells for 6 days with medium refreshed once in the middle of the treatment. Eight dose points with 3 folds dilution of each compound were adopted and the highest concentration of the compounds was 10 μM and 100 μM for HBV inhibitory activity and cytotoxicity determination, respectively.
After 6 days of compounds treatment, 20 μl CCK-8 (Cell Counting Kit-8 (Tianjin Biolite company)) reagents were added to each well of cytotoxicity assay plates, the plate was incubated at 37° C., 5% CO2 for 2.5 hours and the absorbance at 450 nm wavelength was measured, at the same time the absorbance at 630 nm wavelength was read as reference.
(§3) EC50 and CC50 values are calculated by the GraphPad Prism software and are averages where multiple measurements were made. EC50 values for the other exemplified compounds were either not measured or higher than 1 μM.

HBV = HBV inhibitory activity: HBV DNA in the culture medium of HepG2.2.15 cells by q-PCR; format: cell-based
Protocol: as §1, §2
The HBV DAN change in the cell culture medium induced by the compounds was measured by q-PCR (quantitative polymerase chain reaction) method. The HBV DNA in the culture medium was extracted using QIAamp 96 DNA Blood Kit according to the manual and then quantified by q-PCR using the primers and probe in the table below: […]
as §3

[2] = Hepatitis B virus, HepG2.2.15, 144 h, HepG2.2.15 cells, 6 days of compound treatment, HBV DNA in culture medium by q-PCR, highest concentration 10 μM, read-out: EC50

SMILES | CC50 at 6 days [1] [nM] | EC50 (HBV; [2]) [nM] | EC50 (HBV; Hepatitis B virus, HepG2.2.15, 144 h) [nM] | EC50 (HBV; HepG2.2.15 cells, 6 days of compound treatment, HBV DNA in culture medium by q-PCR, highest concentration 10 μM, read-out: EC50) [nM]
COC(=O)C1=C(C2CCN(S(=O)(=O)[C@H]3C[C@H](CO)C3)CC2)NC(c2nccs2)=N[C@@H]1c1ccc(F)cc1Cl [Compound 357A, (trans)-Methyl 4-(2-chloro-4-fluorophenyl)-6-(1-((3-(hydroxymethyl)cyclobutyl)sulfonyl)piperidin-4-yl)-2-(thiazol-2-yl)-1,4-dihydropyrimidine-5-carboxylate] | 13600 | 37 |  | 
COCCOCCOCCS(=O)(=O)NC12CC(C3=C(C(=O)OC)C(c4ccc(F)cc4Cl)N=C(c4nccs4)N3)(C1)C2 (centres unmarked) [Compound 440b, Methyl 4-(2-chloro-4-fluorophenyl)-6-(3-(2-(2-(2-methoxyethoxy)ethoxy)ethylsulfonamido)bicyclo[1.1.1]pentan-1-yl)-2-(thiazol-2-yl)-1,4-dihydropyrimidine-5-carboxylate] | 82900 | 13 |  | 
COC(=O)C1=C([C@H]2CC[C@H](C(=O)OC)CC2)NC(c2ncc(F)cc2F)=NC1c1ccc(F)cc1Cl (single isomer, unassigned) [Compound 174A, Methyl 4-(2-chloro-4-fluorophenyl)-2-(3,5-difluoropyridin-2-yl)-6-((trans)-4-(methoxycarbonyl)cyclohexyl)-1,4-dihydropyrimidine-5-carboxylate] | 19400 | 128 |  | 
COC(=O)C1=C(C2CCN(S(=O)(=O)C3CCC(CC(=O)O)CC3)CC2)NC(c2nccs2)=NC1c1ccc(F)c(F)c1Cl (centres unmarked) [Compound 478, 2-(4-((4-(6-(2-Chloro-3,4-difluorophenyl)-5-(methoxycarbonyl)-2-(thiazol-2-yl)-3,6-dihydropyrimidin-4-yl)piperidin-1-yl)sulfonyl)cyclohexyl)acetic Acid] | 23400 | 6 |  | 
COC(=O)CCS(=O)(=O)N1CCC(C2=C(C(=O)OC)C(c3cccc(F)c3Cl)N=C(c3nccs3)N2)CC1 (single isomer, unassigned) [Compound 113Y, 4-(2-Chloro-3-fluoro-phenyl)-6-[1-(2-methoxycarbonyl-ethane-sulfonyl)-piperidin-4-yl]-2-thiazol-2-yl-1,4-dihydro-pyrimidine-5-carboxylic Acid Methyl Ester] | 11800 | 966 |  | 
COC(=O)C1=C(C2CCN(S(=O)(=O)c3cnn(CC(O)C(F)(F)F)c3)CC2)NC(c2nccs2)=NC1c1ccc(F)c(F)c1Cl (centres unmarked) [Compound 325, Methyl 4-(2-chloro-3,4-difluorophenyl)-2-(thiazol-2-yl)-6-(1-((1-(3,3,3-trifluoro-2-hydroxypropyl)-1H-pyrazol-4-yl)sulfonyl)piperidin-4-yl)-1,4-dihydropyrimidine-5-carboxylate] | 7900 | 5 |  | 
CCOC(=O)C1=C([C@H]2CC[C@H](C(=O)O)CC2)NC(c2nccs2)=NC1c1ccc(F)c(F)c1C (some centres unmarked) [Compound 154A] | 30700 | 71 |  | 
COC(=O)C1=C(C2CC(O)C2)NC(c2nccs2)=NC1c1ccc(F)cc1Cl (centres unmarked) [Compound 295, Methyl 4-(2-chloro-4-fluorophenyl)-6-(3-hydroxycyclobutyl)-2-(thiazol-2-yl)-1,4-dihydropyrimidine-5-carboxylate] | 64200 | 215 |  | 
COC(=O)C1=C(C2CCN(S(=O)(=O)C3CC(O)C3)CC2)NC(c2nccs2)=NC1c1ccc(F)cc1Cl (single isomer, unassigned) [Compound 335A, Methyl 4-(2-chloro-4-fluorophenyl)-6-(1-((3-hydroxycyclobutyl)sulfonyl)piperidin-4-yl)-2-(thiazol-2-yl)-1,4-dihydropyrimidine-5-carboxylate] | 12200 | 20 |  | 
COC(=O)C1=C(C2CCN(S(=O)(=O)c3cnn(C[C@@H](C)O)c3)CC2)NC(c2nccs2)=NC1c1ccc(F)cc1Cl (stereo partly drawn) [Compound 360C, methyl 4-(2-chloro-4-fluorophenyl)-6-(1-((1-((R)-2-hydroxypropyl)-1H-pyrazol-4-yl)sulfonyl)piperidin-4-yl)-2-(thiazol-2-yl)-1,4-dihydropyrimidine-5-carboxylate] | 17000 |  | 17 | 
COC(=O)C1=C(C2CN(S(=O)(=O)c3ccccc3)C2)NC(c2nccs2)=NC1c1ccc(F)cc1Cl (centres unmarked) [Compound 130, 6-(1-Benzenesulfonyl-azetidin-3-yl)-4-(2-chloro-4-fluoro-phenyl)-2-thiazol-2-yl-1,4-dihydro-pyrimidine-5-carboxylic acid methyl ester] | > 10000 | 550 |  | 
CCOC(=O)C1=C([C@H]2C[C@@H](NS(C)(=O)=O)C2(C)C)NC(c2nccs2)=NC1c1ccc(F)cc1Cl (single isomer, unassigned) [Compound 437A, (cis)-Ethyl 4-(2-chloro-4-fluorophenyl)-6-(2,2-dimethyl-3-(methylsulfonamido)cyclobutyl)-2-(thiazol-2-yl)-1,4-dihydropyrimidine-5-carboxylate] | 10400 | 600 |  | 
COC(=O)C1=C(C2CCN(S(=O)(=O)CC(=O)O)CC2)NC(c2nccs2)=NC1c1ccc(F)cc1Cl (centres unmarked) [Compound 107, 2-((4-(6-(2-Chloro-4-fluorophenyl)-5-(methoxycarbonyl)-2-(thiazol-2-yl)-3,6-dihydropyrimidin-4-yl)piperidin-1-yl)sulfonyl)acetic Acid] | 51400 | 248 |  | 
COC(=O)C1=C(C23CC(NS(C)(=O)=O)(C2)C3)NC(c2nccs2)=NC1c1ccc(F)cc1Cl (single isomer, unassigned) [Compound 372Y, Methyl 4-(2-chloro-4-fluorophenyl)-6-(3-(methylsulfonamido)bicyclo[1.1.1]pentan-1-yl)-2-(thiazol-2-yl)-1,4-dihydropyrimidine-5-carboxylate] | 31800 | 15 |  | 
CCOC(=O)C1=C(C2CCN(S(=O)(=O)[C@H]3C[C@H](C(=O)O)C3)CC2)NC(c2nccs2)=NC1c1ccc(F)cc1Br (stereo partly drawn) [Compound 333B, (trans)-3-((4-(6-(2-bromo-4-fluorophenyl)-5-(ethoxycarbonyl)-2-(thiazol-2-yl)-3,6-dihydropyrimidin-4-yl)piperidin-1-yl)sulfonyl)cyclobutane-1-carboxylic Acid] | 33100 | 35 |  | 
COC(=O)C1=C(C2CC2)NC(c2nccs2)=NC1c1ccc(F)cc1Cl (single isomer, unassigned) [Compound 90A, Methyl 4-(2-chloro-4-fluorophenyl)-6-cyclopropyl-2-(thiazol-2-yl)-1,4-dihydropyrimidine-5-carboxylate] | 26700 | 23 |  | 
COC(=O)C1=C([C@H]2CC[C@H](C(=O)O)CC2)NC(c2nccs2)=NC1c1ccc(F)cc1Br (stereo partly drawn) [Compound 225, (trans)-4-(6-(2-Bromo-4-fluorophenyl)-5-(methoxycarbonyl)-2-(thiazol-2-yl)-3,6-dihydropyrimidin-4-yl)cyclohexanecarboxylic Acid] | ≥ 100000 | 87 |  | 
COC(=O)C1=C(C2CCN(S(=O)(=O)CC(=O)O)C2)NC(c2nccs2)=NC1c1ccc(F)cc1Cl (single isomer, unassigned) [Compound 214A, 2-((−3-(−6-(2-Chloro-4-fluorophenyl)-5-(methoxycarbonyl)-2-(thiazol-2-yl)-3,6-dihydropyrimidin-4-yl)pyrrolidin-1-yl)sulfonyl)acetic Acid] | > 100000 |  |  | 196
COC(=O)C1=C([C@H]2CC[C@@H](N(CC(=O)O)S(C)(=O)=O)CC2)NC(c2nccs2)=NC1c1ccc(F)cc1Cl (relative stereo) [Compound 135, 2-(N-(cis-4-(6-(2-chloro-4-fluorophenyl)-5-(methoxycarbonyl)-2-(thiazol-2-yl)-3,6-dihydropyrimidin-4-yl)cyclohexyl)methylsulfonamido)acetic Acid] | 62500 | 346 |  | 
CCOC(=O)C1=C([C@@H]2C[C@H](NS(C)(=O)=O)CO2)NC(c2nccs2)=NC1c1cccc(F)c1Cl (relative stereo) [Compound 261, (cis)-Ethyl 4-(2-chloro-3-fluorophenyl)-6-(4-(methylsulfonamido)-tetrahydrofuran-2-yl)-2-(thiazol-2-yl)-1,4-dihydropyrimidine-5-carboxylate] | 37500 | 142 |  | 
COC(=O)C1=C(C2CCCC(C(=O)O)CC2)NC(c2nccs2)=NC1c1ccc(F)cc1Cl (single isomer, unassigned) [Compound 95A, 4-(6-(2-Chloro-4-fluorophenyl)-5-(methoxycarbonyl)-2-(thiazol-2-yl)-3,6-dihydropyrimidin-4-yl)cycloheptanecarboxylic Acid] |  | 101 |  | 
